In brackets after ≈: the same amount, converted by molar mass. Read-outs that look alike come from different tables or passages of the source. *1 amine or outer side, *2 acyl side, *3 side chain or, on linkers, in order; H or OH if unused. Where a SMILES comes first, the peptide text is derived from it. Bridges are numbered along the chain shown (N, C = ends). Roman numbers before positions name the chains, in order. [ ]: non-standard residue; d: D form. Actinocin(9to1) = Cc1c2oc3c(C)ccc(C(=O)[*:1])c3nc-2c(C(=O)[*:2])c(N)c1=O; NMeV = CN[C@H](C(=O)O)C(C)C; Sar = CNCC(=O)O
Legend:
[1] = XTT cell proliferation (cytotoxicity) assay on McCoy cells; type: cell-based; details: mouse; McCoy cells, XTT, 48 h; read-out: IC50 (cytotoxicity)
Description: Extract and compounds were dissolved in dimethyl sulfoxide (DMSO) and stored at −20°C. All tested compounds were diluted to the final concentration with RPMI 1640 and control cultures were diluted with 0.1% DMSO.
McCoy cells were maintained in monolayer culture at 37°C and 5% CO2 with 10% […] Medium, 10 μg/mL of penicillin, 10 μg/mL, streptomycin, 40 μg/mL gentamycin, and 0.25 μg/mL fungizone.
A microtiter plate with McCoy cells was used for testing all the ethanol extracts for cytotoxicity following the method of [26]. Cytotoxicity was measured by the XTT (sodium 3′-[1-(phenyl amino-carbonyl)-3,4-tetrazolium]-bis-[4-methoxy-6-nitro] benzene sulfonic acid hydrate) method using a cell proliferation kit II (Roche Diagnostics GmbH). Hundred microlitres of McCoy cells (1 × 10^5 mL) was seeded onto a microtiter plate and incubated for 24 h to allow the cells to attach to the bottom of the plate. Dilution series were made of the extract and compound and the various concentrations (400 to 3.1 μg/mL) were added to the microtitre plate and incubated for 48 h. The XTT reagents were added to a final concentration of 0.3 mg/mL and the cells were incubated for 1-2 hours. The positive drug control (Zearalenone) at concentrations range of (10 μg/mL to 0.6 μg/mL) was included in the assay. After incubation the absorbance of the colour was spectrophotometrically quantified using an ELISA plate reader, which measured the optical density at 490 nm with a reference wavelength of 690 nm. The assay was carried out in triplicate.

[2] = tested on: Actinomyces naeslundii (ATCC 19039); experiment: Microdilution MIC/MMC (INT) against Actinomyces naeslundii; type: cell-based; details: A.n, Gram +ve, table title says mg/mL; for MBC: MMC in title
Description: (§1) The microorganisms used in this study include Actinomyces naeslundii (ATCC 19039), Actinomyces israelii (ATCC 10049), Aggregatibacter actinomycetemcomitans (ATCC 33384), Candida albicans (Med I), Porphyromonas gingivalis (ATCC 33277), Prevotella intermedia (ATCC 25611), and Streptococcus mutans (ATCC 25175). Bacteria were grown in the Casein-peptone Soy Agar medium (CASO) (Merck SA (Pty) Ltd.) under anaerobic conditions in a jar with anaerocult A (Merck SA (Pty) Ltd.), at 37°C for 48 hours. Sabouraud Dextrose Agar medium (SDA) (Merck SA (Pty) Ltd.) was used for the culturing of Candida albicans and incubated at 37°C for 24 hours under aerobic conditions. Subculturing was done once weekly.
(§2) The microdilution technique using 96-well microplates was used to obtain the MIC and MMC values of the crude extract against microorganisms under study. The extract was serially diluted in the 96-well plate with 48 hours old microorganisms (5 × 10^6 CFU/mL) grown at 37°C and the final concentration of extract and positive control (CHX) ranged from 25.0 mg/mL to 0.8 mg/mL. Microbial growth was indicated by adding 40 μL of (0.2 mg/mL) p-iodonitrotetrazolium violet (INT) (Sigma-Aldrich, South Africa) to microplate wells and incubated at 37°C for 48 hours. MIC was defined as the lowest concentration that inhibited the colour change of INT. […] These suspensions were reincubated at 37°C for 48 hours. The MMC was determined as the lowest concentration of extract which inhibited 100% growth of microorganisms.

[3] = tested on: Actinomyces israelii (ATCC 10049); experiment: Microdilution MIC/MMC (INT) against Actinomyces israelii; type: cell-based; details: A.i, Gram +ve, table title says mg/mL; for MBC: MMC in title
Description: as §1, §2

Candida albicans (Med I) = experiment: Microdilution MIC/MMC (INT) against Candida albicans; type: cell-based; details: C.a, Yeast, table title says mg/mL; for MBC: MMC in title
Description: as §1, §2

[4] = tested on: Aggregatibacter actinomycetemcomitans (ATCC 33384); experiment: Microdilution MIC/MMC (INT) against Aggregatibacter actinomycetemcomitans; type: cell-based; details: A.a, Gram –ve, table title says mg/mL; for MBC: MMC in title
Description: as §1, §2

[5] = tested on: Porphyromonas gingivalis (ATCC 33277); experiment: Microdilution MIC/MMC (INT) against Porphyromonas gingivalis; type: cell-based; details: P.g, Gram –ve, table title says mg/mL; for MBC: MMC in title
Description: as §1, §2

[6] = tested on: Prevotella intermedia (ATCC 25611); experiment: Microdilution MIC/MMC (INT) against Prevotella intermedia; type: cell-based; details: P.i, Gram –ve, table title says mg/mL; for MBC: MMC in title
Description: as §1, §2

oral microorganisms = experiment: Microdilution MIC/MMC, summary over tested microbial species; type: cell-based; details: against A. israelii and A. naeslundii; read-out: lowest MIC and MMC value
Description: as §1, §2

[7] = DPPH free radical scavenging assay; type: biochemical; details: 37°C, 30 min, 517 nm
Description: The free radical scavenging activity was measured using 1, 1 diphenyl-2-picryl-hydraxyl (DPPH) assay with slight modifications. The ethanol extract of A. afra and Vitamin C (positive control) 1000 μg/mL (20 μL) was added in the first three wells of a 96-well plate containing 200 μL of distilled water to make up final concentration of 100 μg/mL and the remaining wells were filled with 110 μL of distilled water. The first raws containing the extract/compounds were serially diluted to wells which contain 110 μL of distilled water, and later, 90 μL of methanolic solution of DPPH ([…]) was added to all the wells. The final concentrations of the extract/compounds ranged from 100 to 0.8 μg/mL. The plates were incubated at 37°C for 30 min and the absorbance was measured at 517 nm using the ELISA plate reader. The percent radical scavenging activity by A. afra was determined by comparison with ethanol (blank). The inhibition ratio was calculated as follows: % DPPH radical-scavenging = (AC-AS)/AC × 100, where AC is absorbance of the control solution (containing only DPPH solution), and AS is the absorbance of the sample in DPPH solution. The percentage of DPPH radical-scavenging was plotted against the plant extract/compounds concentrations (μg/mL) to determine the concentration of extract/compound required to scavenge DPPH by 50% (EC50).

[8] = tested on: murine melanoma B16 cell line; parameters: method as in PMID 15363977; details: B16 cells; cited from earlier work
[9] = Actinomyces naeslundii, ATCC19039
[10] = Actinomyces israelii, ATCC10049, read-out: MBC
[11] = Actinomyces israelii, ATCC10049, read-out: MIC
[12] = Porphyromonas gingivalis, ATCC33277
[13] = Prevotella intermedia, ATCC25611, read-out: MBC
[14] = Prevotella intermedia, ATCC25611, read-out: MIC
[15] = Actinomyces israelii, ATCC10049
[16] = Aggregatibacter actinomycetemcomitans, ATCC33384
[17] = Porphyromonas gingivalis, ATCC33277, read-out: MIC
[18] = Prevotella intermedia, ATCC25611

Cc1c2oc3c(C)ccc(C(=O)N[C@@H]4C(=O)N[C@H](C(C)C)C(=O)N5CCC[C@H]5C(=O)N(C)CC(=O)N(C)[C@@H](C(C)C)C(=O)O[C@@H]4C)c3nc-2c(C(=O)N[C@@H]2C(=O)N[C@H](C(C)C)C(=O)N3CCC[C@H]3C(=O)N(C)CC(=O)N(C)[C@@H](C(C)C)C(=O)O[C@@H]2C)c(N)c1=O [Actinomycin-D, reference compound] (I: T[dV]P[Sar][NMeV] / II: T[dV]P[Sar][NMeV]; ester I:1-I:C, II:1-II:C; linker I:N-II:N via Actinocin(9to1))
IC50 at 48 h [1]: 0.00336 µg/mL (≈ 0.00268 µM)

[H]/N=C(\N/C(=N/[H])NCCCCCCNC(=N)NC(=N)Nc1ccc(Cl)cc1)Nc1ccc(Cl)cc1 [Chlorhexidine, chlorhexidine, reference compound]
MBC [2, 9]: 1600 µg/mL (≈ 3170 µM)
MIC [2, 9]: 1600 µg/mL (≈ 3170 µM)
MBC [3, 10]: 6.3 µg/mL (≈ 12.5 µM)
MIC [3, 11]: 6.3 µg/mL (≈ 12.5 µM)
MBC (Candida albicans (Med I); read-out: MBC): 1.25 µg/mL (≈ 2.47 µM)
MIC (Candida albicans (Med I); read-out: MIC): 6.3 µg/mL (≈ 12.5 µM)
MBC ([4]; Aggregatibacter actinomycetemcomitans, ATCC33384, read-out: MBC): 1.6 µg/mL (≈ 3.17 µM)
MIC ([4]; Aggregatibacter actinomycetemcomitans, ATCC33384, read-out: MIC): 1.6 µg/mL (≈ 3.17 µM)
MBC ([5]; Porphyromonas gingivalis, ATCC33277, read-out: MBC): 1.6 µg/mL (≈ 3.17 µM)
MIC [5, 12]: 1600 µg/mL (≈ 3170 µM)
MBC [6, 13]: 6.3 µg/mL (≈ 12.5 µM)
MIC [6, 14]: 6.3 µg/mL (≈ 12.5 µM)

C=C1C(=O)OC2C1C(OC(C)=O)CC(=C)C1(O)C=CC(C)(O)C21 (stereo not drawn) [compound 2, 12α,4α-dihydroxybishopsolicepolide]
MBC [2, 9]: 1000 µg/mL (≈ 3120 µM)
MIC [2, 9]: 500 µg/mL (≈ 1560 µM)
MBC [3, 15]: 500 µg/mL (≈ 1560 µM)
MIC [3, 15]: 500 µg/mL (≈ 1560 µM)
MBC (Candida albicans (Med I)): > 1000 µg/mL
MIC (Candida albicans (Med I)): > 1000 µg/mL
MBC [4, 16]: > 1000 µg/mL
MIC [4, 16]: > 1000 µg/mL
MBC [5, 12]: > 1000 µg/mL
MIC [5, 17]: > 1 µg/mL
MBC [6, 13]: 1 µg/mL (≈ 3.12 µM)
MIC [6, 18]: 1000 µg/mL (≈ 3120 µM)

C[C@H]1[C@H](C)CC[C@]2(C)CC[C@]3(C)C(=CC[C@@H]4[C@@]5(C)CC[C@H](O)C(C)(C)[C@@H]5CC[C@]43C)[C@H]12 [compound 4, α-amyrin]
MBC ([2]; Actinomyces naeslundii, ATCC19039, read-out: MBC): > 1 µg/mL
MIC [2, 9]: 1000 µg/mL (≈ 2340 µM)
MBC [3, 10]: > 1 µg/mL
MIC [3, 11]: > 1 µg/mL
MBC (Candida albicans (Med I)): > 1000 µg/mL
MIC (Candida albicans (Med I)): > 1000 µg/mL
MBC [4, 16]: > 1000 µg/mL
MIC [4, 16]: > 1000 µg/mL
MBC [5, 12]: > 1000 µg/mL
MIC [5, 17]: > 1 µg/mL
MBC [6, 18]: > 1000 µg/mL
MIC [6, 14]: > 1 µg/mL

C=C(C)[C@@H]1CC[C@]2(C(=O)O)CC[C@]3(C)[C@H](CC[C@@H]4[C@@]5(C)CC[C@H](O)C(C)(C)[C@@H]5CC[C@]43C)[C@@H]12 [compound 6, betulinic acid]
MBC [2, 9]: 500 µg/mL (≈ 1090 µM)
MIC ([2]; Actinomyces naeslundii, ATCC19039, read-out: MIC): 0.25 µg/mL (≈ 0.547 µM)
MBC [3, 15]: 1000 µg/mL (≈ 2190 µM)
MIC [3, 11]: 1 µg/mL (≈ 2.19 µM)
MBC (Candida albicans (Med I)): > 1000 µg/mL
MIC (Candida albicans (Med I)): > 1000 µg/mL
MIC (oral microorganisms): 250 µg/mL (≈ 547 µM)
DPPH scavenging IC50 [7]: 2.42 µg/mL
MBC [4, 16]: > 1000 µg/mL
MIC [4, 16]: > 1000 µg/mL
IC50 at 48 h [1]: 31 µg/mL (≈ 67.8 µM)
MBC [5, 12]: > 1000 µg/mL
MIC [5, 12]: 1000 µg/mL (≈ 2190 µM)
IC50 apoptotic effects [8]: 22.5 µg/mL (≈ 49.3 µM)
MBC [6, 18]: > 1000 µg/mL
MIC [6, 18]: 1000 µg/mL (≈ 2190 µM)

O=C1O[C@H]([C@@H](O)CO)C(O)=C1O [vitamin C, reference compound]
DPPH scavenging IC50 [7]: 1.22 µg/mL

phytol [compound 5]
MBC [2]: >1.0 µg/mL
MIC [2]: >1.0 µg/mL
MBC [3]: >1.0 µg/mL
MIC [3]: >1.0 µg/mL
MBC (Candida albicans (Med I)): > 1000 µg/mL
MIC (Candida albicans (Med I)): > 1000 µg/mL
MBC [4]: > 1000 µg/mL
MIC [4]: > 1000 µg/mL
MBC [5]: > 1000 µg/mL
MIC [5]: >1.0 µg/mL
MBC [6]: > 1000 µg/mL
MIC [6]: >1.0 µg/mL
